Experimental data as given in patent US9975876B2, “2-pyridyloxy-3-ester-4-ether orexin receptor antagonists” (MERCK SHARP & DOHME CORP., priority 2013, dated 2018).

What was measured:
human orexin-2 receptor = human orexin-2 receptor (Homo sapiens (Human), UniProt O43614); assay: FLIPR Ca2+ flux assay, orexin-2 receptor antagonism; type: cell-based; conditions: CHO cells; agonist 70 pM Ala-6,12 human orexin-A; read-out: hOX2R FLIPR IC50
Method: In a typical experiment the OX1 and OX2 receptor antagonistic activity of the compounds of the present invention was determined in accordance with the following experimental method. For intracellular calcium measurements, Chinese hamster ovary (CHO) cells expressing the rat orexin-1 receptor or the human orexin-2 receptor, are grown in Iscove's modified DMEM containing 2 mM L-glutamine, […], 1% hypoxanthine-thymidine supplement, 100 U/ml penicillin, 100 μg/ml streptomycin and 10% heat-inactivated fetal calf serum (FCS). The cells are seeded at 20,000 cells/well into Becton-Dickinson black 384-well clear bottom sterile plates coated with poly-D-lysine. All reagents were from GIBCO-Invitrogen Corp. The seeded plates are incubated overnight at 37° C. and 5% CO2. Ala-6,12 human orexin-A as the agonist is prepared as a 1 mM stock solution in 1% bovine serum albumin (BSA) and diluted in assay buffer (HBSS containing 20 mM HEPES, 0.1% BSA and 2.5 mM probenecid, pH7.4) for use in the assay at a final concentration of 70 pM. Test compounds are prepared as 10 mM stock solution in DMSO, then diluted in 384-well plates, first in DMSO, then assay buffer. On the day of the assay, cells are washed 3 times with 100 μl assay buffer and then incubated for 60 min (37° C., 5% CO2) in 60 μl assay buffer containing 1 μM Fluo-4AM ester, 0.02% pluronic acid, and 1% BSA. The dye loading solution is then aspirated and cells are washed 3 times with 100 μl assay buffer. 30 μl of that same buffer is left in each well. Within the Fluorescent Imaging Plate Reader (FLIPR, Molecular Devices), test compounds are added to the plate in a volume of 25 μl, incubated for 5 min and finally 25 μl of agonist is added. Fluorescence is measured for each well at 1 second intervals for 5 minutes and the height of each fluorescence peak is compared to the height of the fluorescence peak induced by 70 pM Ala-6,12 orexin-A with buffer in place of antagonist. […] The intrinsic orexin receptor antagonist activity of a compound which may be used in the present invention may be determined by these assays.

hOX1R = hOX1R (Homo sapiens, UniProt O43613); assay: FLIPR Ca2+ flux assay, orexin-1 receptor antagonism; type: cell-based; conditions: CHO cells; agonist 70 pM Ala-6,12 human orexin-A

Sequence of human orexin-2 receptor (O43614 whole entry): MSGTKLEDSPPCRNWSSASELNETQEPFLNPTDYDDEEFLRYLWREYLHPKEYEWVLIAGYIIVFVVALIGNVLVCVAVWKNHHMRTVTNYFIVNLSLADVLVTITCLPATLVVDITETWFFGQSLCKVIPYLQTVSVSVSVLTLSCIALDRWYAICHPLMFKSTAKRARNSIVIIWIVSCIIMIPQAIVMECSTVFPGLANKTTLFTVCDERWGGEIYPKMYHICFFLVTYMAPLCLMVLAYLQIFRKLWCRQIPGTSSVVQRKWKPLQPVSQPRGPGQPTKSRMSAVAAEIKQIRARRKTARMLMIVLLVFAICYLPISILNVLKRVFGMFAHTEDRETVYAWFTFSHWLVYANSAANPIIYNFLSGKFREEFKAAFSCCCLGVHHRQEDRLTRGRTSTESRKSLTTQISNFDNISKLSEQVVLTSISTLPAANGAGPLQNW

With CCOC(=O)c1c(OC)ccnc1O[C@@H]1CC[C@@H](C)N(C(=O)c2ccccc2-n2nccn2)C1 [Example 25, ethyl 4-methoxy-2-{[(3R,6R)-6-methyl-1-{[2-(2H-1,2,3-triazol-2-yl)phenyl]carbonyl}piperidin-3-yl]oxy}pyridine-3-carboxylate] the IC50 (human orexin-2 receptor) was 19.3 nM and the IC50 (hOX1R) was 814 nM.

Compound CCOC(=O)c1c(OC)ccnc1O[C@@H]1CC[C@@H](C)N(C(=O)c2cccc(F)c2-n2nccn2)C1 [Example 26] has an IC50 (human orexin-2 receptor) of 39.6 nM and an IC50 (hOX1R) of 2790 nM.

Work on CCOc1ccnc(O[C@@H]2CC[C@@H](C)N(C(=O)c3ccccc3-n3nccn3)C2)c1C(=O)OC [Example 27, Methyl 4-ethoxy-2-{[(3R,6R)-6-methyl-1-{[2-(2H-1,2,3-triazol-2-yl)phenyl]carbonyl}piperidin-3-yl]oxy}pyridine-3-carboxylate] yielded an IC50 (human orexin-2 receptor) of 167 nM and an IC50 (hOX1R) of 7000 nM.

In the case of CCOC(=O)c1c(OCC)ccnc1O[C@@H]1CC[C@@H](C)N(C(=O)c2ccccc2-n2ncnn2)C1 [Example 28, Ethyl 4-ethoxy-2-{[(3R,6R)-6-methyl-1-{[2-(2H-tetrazol-2-yl)phenyl]carbonyl}piperidin-3-yl]oxy}pyridine-3-carboxylate], the IC50 (human orexin-2 receptor) is reported as 18 nM and the IC50 (hOX1R) is reported as 4130 nM.

In the case of COC(=O)c1c(OC)cccc1O[C@@H]1CC[C@@H](C)N(C(=O)c2ccccc2-n2nccn2)C1 [Example 31, Methyl 2-methoxy-6-{[(3R,6R)-6-methyl-1-{[2-(2H-1,2,3-triazol-2-yl)phenyl]carbonyl}piperidin-3-yl]oxy}benzoate], the IC50 (human orexin-2 receptor) is reported as 25 nM and the IC50 (hOX1R) is reported as > 10000 nM.

With COC(=O)c1c(OC)cccc1O[C@@H]1CC[C@@H](C)N(C(=O)c2ccsc2-n2nccn2)C1 [Example 32, methyl 2-methoxy-6-{[(3R,6R)-6-methyl-1-{[2-(2H-1,2,3-triazol-2-yl)thiophen-3-yl]carbonyl}piperidin-3-yl]oxy}benzoate] the IC50 (human orexin-2 receptor) was 61 nM and the IC50 (hOX1R) was > 10000 nM.

With COC(=O)c1c(OC)cccc1O[C@@H]1CC[C@@H](C)N(C(=O)c2ccccc2-n2ncnn2)C1 [Example 33, methyl 2-methoxy-6-{[(3R,6R)-6-methyl-1-{[2-(2H-tetrazol-2-yl)phenyl]carbonyl}piperidin-3-yl]oxy}bcnzoate] the IC50 (human orexin-2 receptor) was 202 nM and the IC50 (hOX1R) was > 10000 nM.

With COC(=O)c1c(OC)cccc1O[C@@H]1CC[C@@H](C)N(C(=O)c2ccsc2-c2ncccn2)C1 [Example 34, methyl 2-methoxy-6-({(3R,6R)-6-methyl-1-[(2-pyrimidin-2-ylthiophen-3-yl)carbonyl]piperidin-3-yl}oxy)benzoate] the IC50 (human orexin-2 receptor) was 42 nM and the IC50 (hOX1R) was > 10000 nM.

With COC(=O)c1c(OC)cccc1O[C@@H]1CC[C@@H](C)N(C(=O)c2ccccc2-c2ncccn2)C1 [Example 35, methyl 2-methoxy-6-({(3R,6R)-6-methyl-1-[(2-pyrimidin-2-ylphenyl)carbonyl]piperidin-3-yl}oxy)benzoate] the IC50 (human orexin-2 receptor) was 35 nM and the IC50 (hOX1R) was > 10000 nM.
